Reference: ChEMBL document CHEMBL3124877, “Structure-activity-relationship studies around the 2-amino group and pyridine core of antimalarial 3,5-diarylaminopyridines lead to a novel series of pyrazine analogues with oral in vivo activity” (J Med Chem, 2013)

Assays:
Liver microsome [1] = conditions: human, microsomes
Liver microsome [2] = assay: (§1) Half life in human liver microsomes by LC-MS/MS analysis; format: ADME; conditions: microsomes
physchem = conditions: octanol/water, pH 7.4
in vitro = conditions: human, liver microsomes
[3] = as §1; format: ADME; conditions: liver microsomes
[4] = Apparent AUC in mouse infected with Plasmodium berghei ANKA at 3 mg/kg, po measured after 24 hrs; format: ADME, organism-based; set-up: time < 24 hr, dose 3 mg/kg, route oral; conditions: in vivo
Liver microsome [5] = assay: Metabolic stability in rat liver microsomes; format: ADME
Plasma = assay: Apparent plasma concentration in mouse infected with Plasmodium berghei ANKA at 3 mg/kg, po measured after 24 hrs; format: ADME, organism-based; set-up: dose 3 mg/kg, route oral; conditions: in vivo
[6] = Apparent Cmax in mouse infected with Plasmodium berghei ANKA at 3 mg/kg, po measured after 24 hrs; format: ADME, organism-based; set-up: dose 3 mg/kg, route oral; conditions: in vivo

## COc1ccc(-c2cncc(-c3ccc(S(C)(=O)=O)cc3)c2)cn1
Liver microsome [1]
  CLH: 11.3 µL/min/mg
Liver microsome [2]
  t1/2: 0.683 h
physchem
  logD: 2.5

## COc1ccc(-c2nc(-c3ccc(S(C)(=O)=O)cc3)cnc2N)cn1
In vitro
  microsomal CLint: 11 µL/min/mg
[3]
  half-life: 2.57 h
physchem
  logD: 2.3

## COc1ccc(-c2cc(-c3ccc(S(C)(=O)=O)cc3)nnc2N)cn1
In vitro
  microsomal CLint: < 7 µL/min/mg
[3]
  half-life: > 4.17 h
physchem
  logD: 1.7

## COc1ccc(-c2csc3c(-c4ccc(S(C)(=O)=O)cc4)cnc(N)c23)cn1
In vitro
  microsomal CLint: < 7 µL/min/mg
[3]
  half-life: > 4.17 h
physchem
  logD: 2.9

## CS(=O)(=O)c1ccc(-c2cnc(N)c(-c3ccc(C(F)(F)F)nc3)n2)cc1
In vitro
  microsomal CLint: < 7 µL/min/mg
[4]
  AUC at 24 h: 24.3 µM·h
Liver microsome [5]
  Stability: Stable
[3]
  half-life: > 4.17 h
physchem
  logD: 2.8
Plasma
  Cave: 1000 nM
[6]
  Cmax: 1500 nM

## CS(=O)(=O)c1ccc(-c2cnc(N)c(-c3ccc(C(F)(F)F)cc3)n2)cc1
In vitro
  microsomal CLint: 11 µL/min/mg
[4]
  AUC at 24 h: 6.4 µM·h
[3]
  half-life: 2.58 h
physchem
  logD: 2.8
Plasma
  Cave: 300 nM
[6]
  Cmax: 500 nM

## Nc1ncc(-c2ccc(C(=O)N3CCOCC3)cc2)nc1-c1ccc(C(F)(F)F)nc1
In vitro
  microsomal CLint: < 7 µL/min/mg
[3]
  half-life: > 4.17 h

## Nc1ncc(-c2ccc(C(=O)N3CCOCC3)cc2)nc1-c1ccc(C(F)(F)F)cc1
In vitro
  microsomal CLint: < 7 µL/min/mg
[4]
  AUC at 24 h: 0.01 µM·h
[3]
  half-life: > 4.17 h
physchem
  logD: 3.2
Plasma
  Cave: 10 nM
[6]
  Cmax: 1100 nM

## CCS(=O)(=O)c1ccc(-c2cnc(N)c(-c3ccc(C(F)(F)F)nc3)n2)cc1
In vitro
  microsomal CLint: 8 µL/min/mg
[4]
  AUC at 24 h: 0.01 µM·h
[3]
  half-life: 3.62 h
physchem
  logD: 3.1
Plasma
  Cave: 10 nM
[6]
  Cmax: 1100 nM

## CNS(=O)(=O)c1ccc(-c2cnc(N)c(-c3ccc(C(F)(F)F)nc3)n2)cc1
In vitro
  microsomal CLint: 12 µL/min/mg
[4]
  AUC at 24 h: 0.01 µM·h
[3]
  half-life: 1.85 h
physchem
  logD: 2.8
Plasma
  Cave: 10 nM
[6]
  Cmax: 2000 nM

## CNc1ncc(-c2ccc(S(C)(=O)=O)cc2)cc1-c1ccc(OC)nc1
physchem
  logD: 2.6

## COc1ccc(-c2cc(-c3ccc(S(C)(=O)=O)cc3)cnc2NCCCCN)cn1
In vitro
  microsomal CLint: < 7 µL/min/mg
[3]
  half-life: > 4.17 h
physchem
  logD: 1.8

## COc1ccc(-c2cc(-c3ccc(S(C)(=O)=O)cc3)cnc2I)cn1
In vitro
  microsomal CLint: 7.3 µL/min/mg
[3]
  half-life: 3.97 h
physchem
  logD: 3.3

## COc1ccc(-c2cc(-c3ccc(S(C)(=O)=O)cc3)cnc2O)cn1
physchem
  logD: 1.7

## CCOc1ncc(-c2ccc(S(C)(=O)=O)cc2)cc1-c1ccc(OC)nc1
In vitro
  microsomal CLint: 14.2 µL/min/mg
[3]
  half-life: 2.03 h
physchem
  logD: 3.7

## COc1ccc(-c2cc(-c3ccc(S(C)(=O)=O)cc3)cnc2C(F)(F)F)cn1
physchem
  logD: 3

## COc1ccc(-c2nc(-c3ccc(S(C)(=O)=O)cc3)ccc2N)cn1
physchem
  logD: 2.3

## COc1ccc(-c2cc(-c3ccc(S(C)(=O)=O)cc3)ccc2N)cn1
In vitro
  microsomal CLint: < 7 µL/min/mg
[3]
  half-life: > 4.17 h
physchem
  logD: 2.8

## COc1ccc(-c2cc(-c3ccc(S(C)(=O)=O)cc3)cnc2N)cn1
In vitro
  microsomal CLint: 6.2 µL/min/mg
[3]
  half-life: 4.68 h
physchem
  logD: 2.2
